Data as given in US5045558A, “N-substituted imidazoles and their use in pharmaceutical agents” (Schering Aktiengesellschaft, priority 1988, dated 1991).

Experiments:
aromatase = target: T1, aromatase (Homo sapiens, UniProt P11511); experiment: Test A: Determination of Aromatase Activity (release of tritium-labeled water, human placenta microsomes); format: biochemical; details: for Ki: Test A, human placenta microsomes, Dixon method; for inhibition of aromatase (in words): in comparison with compound 1 / compounds known so far
T1 construct: microsomes obtained from human placenta; from tissue; host or cells: human placenta, microsomes
T1 sequence (P11511 1-503): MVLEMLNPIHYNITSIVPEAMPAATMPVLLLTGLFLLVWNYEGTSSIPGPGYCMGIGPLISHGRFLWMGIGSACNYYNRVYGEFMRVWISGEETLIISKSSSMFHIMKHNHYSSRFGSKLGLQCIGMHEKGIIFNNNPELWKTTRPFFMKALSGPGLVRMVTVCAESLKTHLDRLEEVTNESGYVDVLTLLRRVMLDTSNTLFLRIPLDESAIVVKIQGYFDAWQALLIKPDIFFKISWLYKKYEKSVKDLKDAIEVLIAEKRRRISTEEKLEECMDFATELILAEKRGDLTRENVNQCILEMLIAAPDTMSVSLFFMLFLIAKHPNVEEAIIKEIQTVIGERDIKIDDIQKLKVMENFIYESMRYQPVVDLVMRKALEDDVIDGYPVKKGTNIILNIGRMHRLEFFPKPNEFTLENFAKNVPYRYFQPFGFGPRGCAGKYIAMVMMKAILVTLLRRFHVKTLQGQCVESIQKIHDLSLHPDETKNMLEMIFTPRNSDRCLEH
Protocol: Determination of Aromatase Activity
The capabilities of compounds to inhibit the enzyme system of aromatase is tested on microsomes obtained from human placenta. The release of tritium-labeled water (^3 H2 O), which is released as reaction product in the aromatizing of (1beta-^3 H) androstrenedione to estrogen, is measured according to the methods of Thompson and Siiteri (J. Biol. Chem. Z49, 5364-72 (1974)). The corresponding inhibition values (K1, aromatase) are determined according to the method of Dixon (Biochem. J. 94, 760 (1965) by graphic determination of the application of 1/v against the inhibition concentration.

11beta-hydroxylase = target: T2, 11beta-hydroxylase (Bos taurus, UniProt P15150); experiment: Test B: Determination of 11-beta Hydroxylase Activity (mitochondria from bovine suprarenals); format: biochemical; details: for IC50: Test B, bovine suprarenal mitochondria, substrate concentration corresponds to apparent Km; for selectivity of aromatase inhibition (in words): aromatase vs other enzyme systems (11beta-hydroxylase), in comparison with compound 1 / compounds known so far
T2 construct: mitochondria, obtained from bovine suprarenals; from tissue; host or cells: bovine suprarenals (adrenal glands), mitochondria
T2 sequence (P15150 25-503): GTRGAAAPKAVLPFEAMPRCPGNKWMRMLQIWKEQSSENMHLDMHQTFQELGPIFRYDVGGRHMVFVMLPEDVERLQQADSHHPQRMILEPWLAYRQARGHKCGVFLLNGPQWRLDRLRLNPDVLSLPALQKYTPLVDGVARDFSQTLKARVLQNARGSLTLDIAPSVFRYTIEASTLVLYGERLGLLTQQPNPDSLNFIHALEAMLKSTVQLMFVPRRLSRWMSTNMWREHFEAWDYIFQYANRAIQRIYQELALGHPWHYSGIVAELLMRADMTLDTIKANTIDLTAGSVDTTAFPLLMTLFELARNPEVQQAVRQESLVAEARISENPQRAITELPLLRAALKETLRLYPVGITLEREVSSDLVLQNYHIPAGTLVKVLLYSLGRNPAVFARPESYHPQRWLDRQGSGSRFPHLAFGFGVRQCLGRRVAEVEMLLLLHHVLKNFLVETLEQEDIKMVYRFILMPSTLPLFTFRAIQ
Protocol: Determination of 11-beta Hydroxylase Activity
The 11beta-hydroxylase activity is measured on mitochondria, obtained from bovine suprarenals. The reaction of [1,2-^3 H]-17alpha-hydroxy-11-deoxycorticosterone in cortisol is determined by thin-film chromatography of the resulting reaction products according to a method of Mitani et al (J. Biol. Chem 250, 8010-15 (1975)). The concentration of the examined compound is determined, in which the reaction is inhibited by 50%, and the substrate concentration corresponds to the apparent Km value.

Ki (aromatase) | IC50 (11beta-hydroxylase) | selectivity of aromatase inhibition (in words) (11beta-hydroxylase) | SMILES | inhibition of aromatase (in words) (aromatase)
1.1 nM | 94 nM |  | CCCC(c1ccc(C#N)cc1)n1ccnc1 (stereo not shown) [Compound 1, 4-[1-(1-imidazolyl)-butyl]-benzonitrile, reference compound] | 
0.42 nM | 1500 nM | more selective effectiveness | CCCCCC(=O)c1ccc(C(CCC)n2ccnc2)cc1 (stereo not shown) [Compound 2, [4-[1-(1-Imidazolyl)-butyl]-phenyl]-pentylketone] | stronger inhibition actions of aromatase than compound 1
0.87 nM | 750 nM | more selective effectiveness | CCCCOC(=O)c1ccc(C(CCC)n2ccnc2)cc1 (stereo not shown) [Compound 3, 4-[1-(1-imidazolyl)-butyl]-benzoic acid butyl ester] | stronger inhibition actions of aromatase than compound 1
